Consider 3 compounds from patent US10993923B2, “Method for ameliorating fibrosis using 1-[4-chloro-3-(trifluoromethyl)phenyl]-3-[3-(4-cyanophenoxy)phenyl]urea” (priority 2016, dated 2021).

Test [1] concerns TGF-β, PDGFR and STAT3 pathways in LX2 cells. The test can be described thus: Western blot of signalling proteins in LX2 cells. The test is classed as cell-based, human. The settings on record: FIG. 16D, 16E. The protocol: Rat immortal hepatic stellate cell line HSC-T6 and LX2 human hepatic stellate cell line were provided by Professor Scott Friedman of Mount Sinai Hospital in New York, USA. The primary mouse HSCs were obtained via the way: after intubating the hepatic portal vein of the mouse, the cells were perfused with […] and ethylene glycol bis-aminoethyl ether tetraacetic acid (EGTA) buffer in situ, and then collagenase was injected to digest the liver tissue, and then the primary mouse HSCs were isolated by Histodnz gradient. HSC-T6 cells were cultured in Waymouth medium; LX2 cells and primary mouse HSCs were cultured in Dulbecco's Modified Eagle Medium (DMEM) containing 10% fetal bovine serum (FBS), 100 μg/mL penicillin, 100 μg/mL streptomycin, and 2 mM L-glutamine HSC-T6 cells, LX2 cells and primary mouse HSCs were cultured in a humidified incubator containing 5% carbon dioxide at 37° C. After adding the FBS, the resting HSC is started. […] Whole-cell extracts were obtained via RIPA buffer (Millipore, USA) and protein concentrations were quantified via a BCA protein assay kit (Thermo Fisher Scientific, USA). 20 or 25 μg of protein was added to various percentages of SDS-sodium dodecyl sulfate-acrylamide gel and blotted onto a polyvinylidene fluoride (PVDF) membrane. […] Proteins were detected by Immobilon Western Chemiluminescent HRP substrate (Millipore, USA) or ECL detection system (UVP Corporation, USA). […] Plasmids encoding the human wild-type SHP-1 and SHP-1 mutant, in which the N-SH2 domain was […] was changed into an […]) were cloned into the pCMV6-entry vector with myc-tag. These mutants were confirmed through DNA sequencing. […] (Chicago, Ill., USA).
Background: A western blot detects proteins with antibodies after separation by electrophoresis.

Another test concerns LX2 cells. The test can be described thus: Apoptosis (Annexin V / propidium iodide flow cytometry), LX2 cells. In kind it is cell-based, human. The following applies: LX2; FIG. 16D, 16E. As for the experimental part:
Rat immortal hepatic stellate cell line HSC-T6 and LX2 human hepatic stellate cell line were provided by Professor Scott Friedman of Mount Sinai Hospital in New York, USA. The primary mouse HSCs were obtained via the way: after intubating the hepatic portal vein of the mouse, the cells were perfused with […] and ethylene glycol bis-aminoethyl ether tetraacetic acid (EGTA) buffer in situ, and then collagenase was injected to digest the liver tissue, and then the primary mouse HSCs were isolated by Histodnz gradient. HSC-T6 cells were cultured in Waymouth medium; LX2 cells and primary mouse HSCs were cultured in Dulbecco's Modified Eagle Medium (DMEM) containing 10% fetal bovine serum (FBS), 100 μg/mL penicillin, 100 μg/mL streptomycin, and 2 mM L-glutamine HSC-T6 cells, LX2 cells and primary mouse HSCs were cultured in a humidified incubator containing 5% carbon dioxide at 37° C. After adding the FBS, the resting HSC is started. […] The experiment was carried out following the manufacturer's instructions, and each group was triple repetition. […] The proportion of apoptotic cells was mixed the early (Annexin V+/PI-) and the late (Annexin V+/PI+) apoptotic cells measured by BD FACS Verse flow cytometry (BD, USA). Plasmids encoding the human wild-type SHP-1 and SHP-1 mutant, in which the N-SH2 domain was […] was changed into an […]) were cloned into the pCMV6-entry vector with myc-tag. These mutants were confirmed through DNA sequencing. […] (Chicago, Ill., USA).

For test [2], the system named is CCl4-induced hepatic fibrosis in mice. The test can be described thus: CCl4-induced hepatic fibrosis mice treatment model. The test is classed as in vivo, male C57BL/6J mice. The following applies: compound 5, 10, or 20 mg/kg or sorafenib 10 mg/kg, with CCl4 for 6 weeks after 2 weeks CCl4 induction; FIG. 12A. The text has this: (§1) In male C57BL/6J mice, liver fibrosis was induced by carbon tetrachloride (CCl4). The mice were given peritoneal injection of carbon tetrachloride for 4 or 8 weeks every two weeks.
(§2) The mice liver samples were stored in 10% formaldehyde, dehydrated with gradient alcohol, embedded in paraffin blocks, sectioned to a thickness of 3 μm, placed on glass slides, and stained with Picrosirius Red Stain kit (ScyTek, USA), following the manufacturer's instructions. The severity of liver fibrosis was graded according to the Ishak fibrosis score. Quantitative collagen-positive area (qCPA) was determined by densitometry via ImageJ software. Hepatic hydroxyproline concentrations were measured by the hydroxyproline assay kit (Biovision, USA), following the manufacturer's instructions Immunohistochemistry was performed by the Leica BOND-MAX automatic chromatograph (Leica Biosystems, Germany), following the manufacturer's instructions.
Continuous variables are presented as mean (standard error), and categorical data are presented as number (percentage), as appropriate. Differences between subgroups were evaluated using the Student t test. Spearman's correlation was used for the association between SHP-1 and serum alanine aminotransferase (ALT). The mouse survival rate was estimated using the Kaplan-Meier method. The log-rank test was used to determine the statistical differences in survival of the different experimental groups. Statistical analysis was performed using STATA (version 13, Stata Corp, College Station, Tex., USA). All tests were two-sided, and P<0.05 was considered significant.

The test system is the same in test [3]. The test can be described thus: CCl4-induced hepatic fibrosis mice prevention model. The following applies: concurrently administered with CCl4 for 4 weeks; FIG. 11A-11E. In kind it is in vivo, male C57BL/6J mice.
Excerpt: as §1, §2

Test [4] deals with T1, SHP-1 (Homo sapiens, UniProt P29350).
T1 construct: LX2 cell protein extract were reacted with anti-SHP-1 antibody in immunoprecipitation buffer overnight; endogenous in cells; host or cells: LX2 cells
T1 sequence (P29350 whole entry): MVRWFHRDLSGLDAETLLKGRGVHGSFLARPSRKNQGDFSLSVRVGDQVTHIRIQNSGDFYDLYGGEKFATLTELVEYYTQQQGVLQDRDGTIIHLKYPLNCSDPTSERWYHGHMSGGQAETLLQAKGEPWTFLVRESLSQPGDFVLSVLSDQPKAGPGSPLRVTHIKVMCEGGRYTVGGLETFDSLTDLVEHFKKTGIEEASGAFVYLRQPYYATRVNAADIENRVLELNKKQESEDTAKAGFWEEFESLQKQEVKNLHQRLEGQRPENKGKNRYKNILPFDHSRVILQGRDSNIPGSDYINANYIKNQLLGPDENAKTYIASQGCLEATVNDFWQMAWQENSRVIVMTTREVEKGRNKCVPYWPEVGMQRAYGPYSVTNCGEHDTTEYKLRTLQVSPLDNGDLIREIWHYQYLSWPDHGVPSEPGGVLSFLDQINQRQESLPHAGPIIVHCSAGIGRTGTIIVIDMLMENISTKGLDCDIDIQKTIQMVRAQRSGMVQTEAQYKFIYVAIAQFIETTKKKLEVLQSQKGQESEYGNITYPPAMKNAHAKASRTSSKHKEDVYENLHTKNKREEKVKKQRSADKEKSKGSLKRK
The test can be described thus: SHP-1 phosphatase activity, LX2 cells. In kind it is cell-based. The following applies: LX2; sorafenib 5 μM, compound 2.5 or 5 μM; FIG. 16C. The protocol:
After drug treatment, mouse fibroblasts (NIH3T3 cell line), human lung epithelial cells (A549 cell line) or LX2 cell protein extract were reacted with anti-SHP-1 antibody in immunoprecipitation buffer overnight. Protein A/G Sepharose Fast Flow Beads (GE) were added to each sample, followed by a rotation reaction at 4° C. for 3 hours. The 96EnzChek® tyrosine phosphatase assay kit (R-22067) was used for SHP-1 activity assay (Invitrogen, USA).
Plasmids encoding the human wild-type SHP-1 and SHP-1 mutant, in which the N—SH2 domain was truncated (dN1) or one aspartic acid at site 61 was changed into an alanine residue (D61A) were cloned into the pCMV6-entry vector with myc-tag. These mutants were confirmed through DNA sequencing. Smart-pool siRNA, including the control (D-001810-10), and SHP-1 (PTPN6, L-009778-00-0005) were obtained from Dharmacon Inc. (Chicago, Ill., USA). For transient expression, SHP-1 plasmids or siRNA (final concentration, 100 nM) with the Lipofectamine 2000 transfection reagent were pretransfected into the LX2 cells for 24 h, following the manufacturer's instructions.

In test [5] the target is T2, SHP-1 (Rattus norvegicus, UniProt P81718).
T2 construct: endogenous in cells; host or cells: HSC-T6 cells
T2 sequence (P81718 whole entry): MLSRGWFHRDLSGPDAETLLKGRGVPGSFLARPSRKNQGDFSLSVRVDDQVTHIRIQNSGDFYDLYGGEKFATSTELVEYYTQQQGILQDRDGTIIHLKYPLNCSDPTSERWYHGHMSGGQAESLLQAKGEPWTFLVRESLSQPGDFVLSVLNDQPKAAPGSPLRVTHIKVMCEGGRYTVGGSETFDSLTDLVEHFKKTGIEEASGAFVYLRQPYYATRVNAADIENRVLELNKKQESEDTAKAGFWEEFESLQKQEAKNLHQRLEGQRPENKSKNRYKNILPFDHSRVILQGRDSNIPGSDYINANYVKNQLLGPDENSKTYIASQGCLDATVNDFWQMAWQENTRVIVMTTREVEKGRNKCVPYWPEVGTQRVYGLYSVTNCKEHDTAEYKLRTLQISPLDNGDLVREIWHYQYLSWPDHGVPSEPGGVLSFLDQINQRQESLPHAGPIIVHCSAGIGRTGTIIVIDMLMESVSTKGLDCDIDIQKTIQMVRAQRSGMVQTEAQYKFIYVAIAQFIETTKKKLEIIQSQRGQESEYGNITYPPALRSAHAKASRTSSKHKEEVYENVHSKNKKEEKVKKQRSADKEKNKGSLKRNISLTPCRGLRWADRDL
The test can be described thus: SHP-1 phosphatase activity, HSC-T6 cells. In kind it is cell-based. The following applies: sorafenib 5 μM, compound 2.5 or 5 μM, FIG. 16C.

For the compound `O=C(O)COc1ccc(C(=O)CBr)cc1` [PTP inhibitor III, reference compound], in test [1], the “p-STAT3 in compound-treated LX2 cells in the presence of a phosphatase inhibitor” value is on record as “upregulated”. In addition, the “compound-induced apoptosis of LX2 cells in the presence of a phosphatase inhibitor” value in the test on LX2 cells is “rescued”.
For `CNC(=O)c1cc(Oc2ccc(NC(=O)Nc3ccc(Cl)c(C(F)(F)F)c3)cc2)ccn1` [sorafenib, reference compound], the “hepatic fibrosis (picrosirius red staining)” value in test [2] is recorded as “significantly improved hepatic fibrosis”. The “hepatic fibrosis (Picrosirius Red staining, qCPA, Ishak fibrosis score, α-SMA expression, hydroxyproline concentration)” value in test [3] was “significant fibrosis regression”. Besides, the SHP-1 activity entry at SHP-1 [4] and at SHP-1 [5] was “increases the activity of SHP-1” each time.
Turning to Sodium vanadate [reference compound], the “p-STAT3 in compound-treated LX2 cells in the presence of a phosphatase inhibitor” value in test [1] was “upregulation”. In addition, the “compound-induced apoptosis of LX2 cells in the presence of a phosphatase inhibitor” value with LX2 cells is recorded as “rescued”.
